Laboratory results as given in patent US8105798B2, “Cytoplasmic activity of retinoid X receptor and its regulation by ligands and dimerization” (The Burnham Institute, priority 2003, dated 2012).

Key:
Type in all cases: cell-based
TR3 = experiment: subcellular localization of TR3 and RXRα/TR3 heterodimer by confocal microscopy; settings: 75 μM
Protocol: FIG. 10 is a series of confocal microscope images of immunostained PC12 cells illustrating that binding of 15d-PGJ2 to RXRα induces translocation of RXRα homodimer/monomer or TR3/RXRα heterodimer from the nucleus to the cytoplasm. Expression vectors for Flag-RXRα and GFP-TR3 were transfected into PC12 cells alone or together. Cells were then treated with 15d-PGJ2 (5.micro.M) for 3 hr, then immunostained with anti-Flag antibody to detect RXRα Flag-RXRα and GFP-TR3 were visualized by confocal microscopy, and their images merged.
In the absence of TPA, both TR3 and RXRα reside mainly in the nucleus. […] (FIG. 2).
Because RXR heterodimerizes with TR3, Inventor examined the effect of 15d-PGJ2 on TR3 subcellular localization in PC12 phaeochromocytoma cells.
Either TR3 alone, RXRα alone or TR3 and RXRα was transfected into HEK293T cells. Cells were then treated with sulindac sulfide (75.micro.M) for 6 hr. RXR.alpha and TR3 localization was determined by immunostaining, and cells were also stained by DAPI. […] Thus, the effect of sulindac sulfide on the cytoplasmic localization of TR3 depends on RXRα expression, probably due to their heterodimerization. Thus, sulindac sulfide induces nuclear export of RXRα and RXRα/TR3 heterodimer. (FIG. 14b).
The effect of sulindac sulfide on mitochondrial targeting of RXRα and TR3 was determined by treating H460 lung cancer cells with 75 micro.M sulindac sulfide for 6 hours and visualization of the cellular localization of these proteins by immunostaining. A two stage detection system was used having either anti-RXR or anti TR3 as a first stage (Santa Cruz Biotechnology and Abgent, respectively). In the absence of treatment, both RXRα and TR3 were found mainly in the nucleus.

[1] = tested on: H460, MGC80-3 and LNCaP cells; experiment: cytochrome c release by immunostaining; settings: 75 μM, 6 hr
Protocol: To uncover the consequence of RXRα mitochondrial localization induced by sulindac sulfide, H460, MGC80-3 and LnCap cells were treated with or without sulindac sulfide and RXRα mitochondrial and cytochrome c release were determined by immunostaining, as described above. Cells were treated with or without sulindac sulfide (75.micro.M) for 6 hr. Cells were then stained with RXRα, Hsp6, and cytochrome c (cyt c).

RXRα/IKK interaction = molecular target: T1, RXRα/IKK interaction (Homo sapiens, UniProt P19793); experiment: co-immunoprecipitation assay of RXRα with IKK; settings: 6 hr
T1 construct: expressed in transfected cells; host or cells: HEK293T, pcDNA3 expression vectors
Source text: IKK is composed of three subunits: IKKα and IKKβ, the catalytic subunits, and IKKγ, a regulatory subunit. IKK activation is required for NF-kB activation through its phosphorylation and degradation of IkB in response to proinflammatory stimuli. In addition, IKK also regulates cellular processes in a NF-kB-independent manner. We examined whether sulindac sulfide-induced cytoplasmic RXRα could interact with IKK. The indicated expression vector (pcDNA3 from Invitrogen, Corp) was transfected into HEK293T cells alone or together. After transfection, cells were treated with sulindac sulfide (75.micro.M) for 6 hr, and the interaction of RXRα and IKKβ was analyzed by co-immunoprecipitation assay. […] (FIG. 17a). The interaction was also illustrated by their cytoplasmic co-localization in cells treated with sulindac sulfide. (FIG. 17b). […] In this example, H460 cells were treated with or without sulindac sulfide (75.micro.M) for 6 hr, and cells were stained for RXRα and IKKβ (FIG. 17c). […] HA-IKKγ and Flag-RXRα expression vectors were transfected into HEK293T cells alone or together. After transfection, cells were treated with a new retinoid (BI419 (10^-6 M), 15d-PGJ2 (5.micro.M), or sulindac sulfide (75.micro.M) for 6 hr. The interaction of RXRα and IKKγ was studied by co-immunoprecipitation assay.

T1 sequence (P19793 whole entry): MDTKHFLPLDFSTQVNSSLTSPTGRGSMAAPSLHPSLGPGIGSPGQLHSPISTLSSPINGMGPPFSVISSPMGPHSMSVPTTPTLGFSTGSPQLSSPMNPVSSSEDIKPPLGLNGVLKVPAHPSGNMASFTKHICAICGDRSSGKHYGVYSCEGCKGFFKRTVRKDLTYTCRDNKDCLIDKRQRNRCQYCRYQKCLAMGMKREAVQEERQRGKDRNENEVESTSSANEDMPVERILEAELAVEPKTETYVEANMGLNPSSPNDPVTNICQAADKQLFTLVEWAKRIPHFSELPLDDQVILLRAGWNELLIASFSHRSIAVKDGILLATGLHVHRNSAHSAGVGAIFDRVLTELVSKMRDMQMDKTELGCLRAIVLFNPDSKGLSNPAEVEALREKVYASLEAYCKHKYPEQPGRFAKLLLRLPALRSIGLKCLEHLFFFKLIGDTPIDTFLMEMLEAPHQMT
T1 sequence (Q9Y6K9 whole entry partner): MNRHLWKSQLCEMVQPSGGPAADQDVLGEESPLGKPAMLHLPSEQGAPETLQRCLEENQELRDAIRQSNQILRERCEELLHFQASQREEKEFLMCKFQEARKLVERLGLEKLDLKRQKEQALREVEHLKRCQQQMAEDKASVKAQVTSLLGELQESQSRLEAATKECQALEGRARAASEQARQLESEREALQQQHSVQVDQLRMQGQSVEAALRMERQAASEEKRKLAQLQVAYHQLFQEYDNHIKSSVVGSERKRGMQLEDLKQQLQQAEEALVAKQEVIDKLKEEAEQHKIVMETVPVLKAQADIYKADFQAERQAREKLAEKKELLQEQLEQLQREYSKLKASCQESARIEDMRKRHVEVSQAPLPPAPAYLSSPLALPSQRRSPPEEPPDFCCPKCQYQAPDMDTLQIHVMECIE
T1 sequence (O14920 whole entry partner): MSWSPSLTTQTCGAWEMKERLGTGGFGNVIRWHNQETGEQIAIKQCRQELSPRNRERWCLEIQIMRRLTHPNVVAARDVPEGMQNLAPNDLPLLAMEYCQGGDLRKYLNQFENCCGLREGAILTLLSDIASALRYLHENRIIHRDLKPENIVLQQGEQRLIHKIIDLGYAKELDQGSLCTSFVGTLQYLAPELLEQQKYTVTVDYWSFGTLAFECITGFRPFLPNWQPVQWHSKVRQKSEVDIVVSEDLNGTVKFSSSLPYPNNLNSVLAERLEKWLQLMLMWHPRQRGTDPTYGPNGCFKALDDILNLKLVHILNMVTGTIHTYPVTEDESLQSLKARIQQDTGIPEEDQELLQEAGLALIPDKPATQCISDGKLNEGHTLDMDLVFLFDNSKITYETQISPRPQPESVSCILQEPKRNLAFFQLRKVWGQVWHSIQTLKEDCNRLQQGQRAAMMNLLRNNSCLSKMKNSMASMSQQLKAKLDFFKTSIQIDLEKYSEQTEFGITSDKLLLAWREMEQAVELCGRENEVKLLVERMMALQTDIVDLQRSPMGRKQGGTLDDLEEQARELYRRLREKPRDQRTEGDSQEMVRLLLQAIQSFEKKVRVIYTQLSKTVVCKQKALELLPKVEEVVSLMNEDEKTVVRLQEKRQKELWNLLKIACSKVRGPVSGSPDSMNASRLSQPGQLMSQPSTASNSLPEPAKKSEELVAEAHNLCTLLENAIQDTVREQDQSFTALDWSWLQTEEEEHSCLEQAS

interaction of RXRα with IKKγ (RXRα/IKK interaction; HEK293T cells, HA-IKKγ and Flag-RXRα, BI419 10^-6 M, 15d-PGJ2 5 μM, sulindac sulfide 75 μM): further promoted
interaction between RXRα and IKKβ (RXRα/IKK interaction; transfected HEK293T cells, 75 μM): extensive interaction
Compound: CSc1ccc(/C=C2/C(C)=C(CC(=O)O)c3cc(F)ccc32)cc1 [sulindac sulfide]
mitochondrial targeting of RXRα and TR3 (Hsp60) (TR3; H460 lung cancer cells, 6 hours): extensive co-localization of RXRα and TR3 with Hsp60
TR3 and RXRα localization, co-transfected (TR3; HEK293T cells, 6 hr): both TR3 and RXRα are found in the cytoplasm
TR3 localization, TR3 transfected alone (TR3; HEK293T cells, 6 hr): does not affect the nuclear localization of TR3
cytochrome c release [1]: massively released
